Experimental findings from patent publication EP1914235A1, “CHIRAL TETRA-HYDRO BETA-CARBOLINE DERIVATIVES AND APPLICATIONS THEREOF AS ANTIPARASITIC COMPOUNDS” (Université de Lille 2 Droit et Santé, priority 2006, dated 2008) are described below.

Test [1] has as its system P. falciparum 3D7 clone of NF54. Nature of the test: [3H]hypoxanthine drug sensitivity assay, 3D7 clone. Type of test: cell-based. The following applies: Plasmodium falciparum, read-out: IC50 3D7(µg/ml). Here is the method:
(§1) The cultures are naturally asynchronous (65-75% ring stage) and are maintained in continuous log phase growth in RPMI-1640 medium (as developed by Moore et. al. at Roswell Park Memorial Institute, sold by Sigma Aldrich) supplemented with 5% washed human A+ erythrocytes, 25 mM Hepes, […] NaHCO3, and AlbuMAXII (lipid-rich bovine serum albumin) sold GIBCO, Grand Island, NY (CM). All cultures and assays were conducted at 37°C under an atmosphere of 5% CO2 and 5% O2, with a balance of N2.
(§2) The compounds were further diluted to the appropriate concentration using complete medium RPMI-1640 supplemented with 15nM cold hypoxanthine and AlbuMAXII.
Assays were performed in sterile 96-well microtitre plates; each plate contained 100 µl of parasite culture (0.5% parasitemia, 2.5% hematocrit). Each compound was tested in triplicate and parasite growth compared to control and blank (uninfected erythrocytes) wells. After 24h of incubation at 37°C, […] of [^3H]hypoxanthine was added to each well. Cultures were incubated for a further 24 h before they were harvested onto glass-fiber filter mats. The radioactivity was counted using a Wallac Microbeta® 1450 scintillation counter. […] Percentage inhibition was calculated from comparison to blank and control wells, and IC50 values calculated using Microsoft XLFit ® line fitting software (IDBS, UK).
The preliminary screen used the 3D7 strain. The compounds were tested at 6 concentrations (30, 10, 3, 1, 0.3, and 0.1 µg/ml).
(§3) Both the 3D7 clone and the K1 line were used. The compounds were diluted three-fold over at 12 different concentrations with an appropriate starting concentration based on the preliminary screen. The IC50 was determined by a sigmoidal dose response analysis using Microsoft XLFit™ (IDBS, UK).

A further test concerns P. falciparum K1 strain. Nature of the test: [3H]hypoxanthine drug sensitivity assay, K1 strain. Type of test: cell-based. The following applies: Plasmodium falciparum. Here is the method: as §1, §2
Assays were performed in sterile 96-well microtitre plates; each plate contained 100 µl of parasite culture (0.5% parasitemia, 2.5% hematocrit). Each compound was tested in triplicate and parasite growth compared to control and blank (uninfected erythrocytes) wells. After 24h of incubation at 37°C, […] of [^3H]hypoxanthine was added to each well. Cultures were incubated for a further 24 h before they were harvested onto glass-fiber filter mats. The radioactivity was counted using a Wallac Microbeta® 1450 scintillation counter. The results were recorded as counts per minute (CPM) per well at each compound concentration, control and blank wells. Percentage inhibition was calculated from comparison to blank and control wells, and IC50 values calculated using Microsoft XLFit ® line fitting software (IDBS, UK).
as §3

Test [2] relates to Plasmodium berghei ANKA strain. Nature of the test: In vivo antiparasitic activity in infected mice (4-day dosing, parasitemia on day 5). The following applies: mice infected with P. berghei ANKA; for Activity at the dose 50 mg/kg (%): 50 mg/kg every day for 4 days. Here is the method:
Female mice (TFW or BALB/c, specific pathogen free), 18-20 g, or
Infection: Blood was taken from donor mice and diluted in RPMI-1640 medium to a parasitemia of 1% (the equivalent of 1x10^7 infected erythrocytes/ml) whilst kept on ice. An inoculum of 0.2 ml was administered to each mouse by the intravenous route. At 2-4 hours post-inoculation dosing commences.
Evaluation endpoint: On day 5 blood smears of all animals (2 slides/mouse) were prepared, fixed with methanol and stained with 10% Giemsa's stain. Parasitemia was determined microscopically by counting 1000 red blood cells under oil immersion at 1000x magnification.
Each of the tested compounds of formula (I) according to the invention was prepared as a stock solution of 5 mg/ml in 10% DMSO/PBS. Insoluble compounds of formula (I) were milled with stainless steel balls for up to 24 hours to reduce particle size. Fresh dilutions were prepared each day. The route of administration of tested compounds is intra peritoneal (i.p.).
Compounds were formulated at 10 mg/kg or at 50 mg/kg in a standard suspension vehicle (0.5% carboxymethylcellulose, 0.5% benzyl alcohol, 0.4% Tween® 80 in 0.9% NaCl) for both oral and i.p. administration.
Dosing was over a 4 day period as above, and evaluation was also as above.

Setting [3] is: P. falciparum 3D7, sensitive to all anti-malarials, 48 h, [3H]hypoxanthine uptake.

Values after ≈ are worked out from the molar mass of the structure shown. Read-outs that look alike come from different tables or passages of the source.

Take `CN(C)c1ccc(CN2CC[C@@H](N3CC(=O)N4[C@H](c5ccc6c(c5)OCO6)c5[nH]c6ccccc6c5C[C@@H]4C3=O)C2)cc1` [Compound 26, (6R,12aR)-6-Benzo[1,3]dioxol-5-yl-2-[(R)-1-(4-dimethylamino-benzyl)-pyrrolidin-3-yl]-2,3,6,7,12,12a-hexahydro-pyrazino[1',2':1,6]pyrido[3,4-b]indole-1,4-dione]: the IC50 in test [1] (setting [3]) was determined as 0.006 µg/mL (≈ 0.0104 µM); in the test on P. falciparum K1 strain (K1, read-out: IC50 K1), 0.14 µg/mL (≈ 0.242 µM). In test [2] (10 mg/kg every day for 4 days), the “Activity at the dose 10 mg/kg (%)” value turned out to be 15%. In addition, in test [2], the “Activity at the dose 50 mg/kg (%)” value amounted to 17%.
Turning to `O=C1[C@H]2Cc3c([nH]c4ccccc34)[C@@H](c3ccc4c(c3)OCO4)N2C(=O)CN1[C@@H]1CCN(Cc2ccccc2)C1` [Compound 6, (6R,12aR)-6-Benzo[1,3]dioxol-5-yl-2-((R)-1-benzyl-pyrrolidin-3-yl)-2,3,6,7,12,12a-hexahydro-pyrazino[1',2':1,6]pyrido [3,4-b] indole-1,4-dione], the IC50 was 0.1 µg/mL (≈ 0.187 µM) in test [1] (setting [3]) and 0.12 µg/mL (≈ 0.224 µM) in the test on P. falciparum K1 strain (K1, read-out: IC50 K1). The “Activity at the dose 50 mg/kg (%)” value in test [2] worked out at 43%.
Take `O=C1[C@H]2Cc3c([nH]c4ccccc34)[C@H](c3ccc4c(c3)OCO4)N2C(=O)CN1[C@@H]1CCN(Cc2ccccc2)C1` [Compound 14, (6S,12aR)-6-Benzo[1,3]dioxol-5-yl-2-((R)-1-benzyl-pyrrolidin-3-yl)-2,3,6,7,12,12a-hexahydro-pyrazino[1',2':1,6]pyrido [3,4-b]indole-1,4-dione]: the IC50 in test [1] (setting [3]) is 0.29 µg/mL (≈ 0.542 µM); in the test on P. falciparum K1 strain (K1, read-out: IC50 K1) it was 1.03 µg/mL (≈ 1.93 µM).
As for `COc1ccc(CN2CC[C@@H](N3CC(=O)N4[C@H](c5ccc6c(c5)OCO6)c5[nH]c6ccccc6c5C[C@@H]4C3=O)C2)cc1` [Compound 31, (6R,12aR)-6-Benzo[1,3]dioxol-5-yl-2-[(R)-1-(4-methoxy-benzyl)-pyrrolidin-3-yl]-2,3,6,7,12,12a-hexahydro-pyrazino[1',2':1,6]pyrido[3,4-b]indole-1,4-dione], the IC50 in test [1] (setting [3]) is 0.23 µg/mL (≈ 0.407 µM); in the test on P. falciparum K1 strain (K1, read-out: IC50 K1), 0.13 µg/mL (≈ 0.23 µM).
Take `CN(CCCN1CC(=O)N2[C@@H](c3ccc4c(c3)OCO4)c3[nH]c4ccccc4c3C[C@@H]2C1=O)Cc1ccccc1` [Compound 18, (6S,12aR)-6-Benzo[1,3]dioxol-5-yl-2-[3-(benzyl-methyl-amino)-propyl]-2,3,6,7,12,12a-hexahydro-pyrazino[1',2':1,6]pyrido [3,4-b]indole-1,4-dione]: the IC50 in test [1] came to 1.34 µg/mL (≈ 2.5 µM); in the test with P. falciparum K1 strain (K1, read-out: IC50 K1 (µg/ml)), 0.28 µg/mL (≈ 0.522 µM).
Consider `CN(CCCN1CC(=O)N2[C@H](c3ccc4c(c3)OCO4)c3[nH]c4ccccc4c3C[C@@H]2C1=O)Cc1ccccc1` [Compound 17, (6R,12aR)-6-Benzo[1,3]dioxol-5-yl-2-[3-(benzyl-methyl-amino)-propyl]-2,3,6,7,12,12a-hexahydro-pyrazino[1',2':1,6]pyrido [3,4-b]indole-1,4-dione], for which the IC50 in test [1] (setting [3]) was determined as 0.98 µg/mL (≈ 1.83 µM); with P. falciparum K1 strain (K1, read-out: IC50 K1), 0.19 µg/mL (≈ 0.354 µM).
`CN(CCN1CC(=O)N2[C@H](c3ccc4c(c3)OCO4)c3[nH]c4ccccc4c3C[C@@H]2C1=O)Cc1ccccc1` [Compound 15, (6R,12aR)-6-Benzo[1,3]dioxol-5-yl-2-[2-(benzyl-methyl-amino)-ethyl]-2,3,6,7,12,12a-hexahydro-pyrazino[1',2':1,6]pyrido [3,4-b]indole-1,4-dione]: the IC50 in test [1] (setting [3]) was 0.6 µg/mL (≈ 1.15 µM); in the test on P. falciparum K1 strain (K1, read-out: IC50 K1), 0.4 µg/mL (≈ 0.765 µM).
As for `CN(CCN1CC(=O)N2[C@@H](c3ccc4c(c3)OCO4)c3[nH]c4ccccc4c3C[C@@H]2C1=O)Cc1ccccc1` [Compound 16, (6S,12aR)-6-Benzo[1,3]dioxol-5-yl-2-[2-(benzyl-methyl-amino)-ethyl]-2,3,6,7,12,12a-hexahydro-pyrazino[1',2':1,6]pyrido [3,4-b]indole-1,4-dione], the IC50 in test [1] came out at 0.3 µg/mL (≈ 0.574 µM); in the test on P. falciparum K1 strain (K1, read-out: IC50 K1 (µg/ml)), 0.6 µg/mL (≈ 1.15 µM).
`O=C1[C@H]2Cc3c([nH]c4ccccc34)[C@@H](c3ccccc3)N2C(=O)CN1C1CCN(Cc2ccccc2)CC1` [Compound 90, (6R,12aR)-2-(1-Benzyl-piperidin-4-yl)-6-phenyl-2,3,6,7,12,12a-hexahydro-pyrazino[1',2':1,6]pyrido[3,4-b]indole-1,4-dione]: the IC50 stood at 0.48 µg/mL (≈ 0.951 µM) in test [1] (setting [3]) and 0.3 µg/mL (≈ 0.594 µM) in the test with P. falciparum K1 strain (K1, read-out: IC50 K1).
With `CC(C)(C)OC(=O)NCCN1CC[C@@H](N2CC(=O)N3[C@H](c4ccc5c(c4)OCO5)c4[nH]c5ccccc5c4C[C@@H]3C2=O)C1` [Compound 35, {2-[(R)-3-((6R,12aR)-6-Benzo[1,3]dioxol-5-yl-1,4-dioxo-3,4,6,7,12,12a-hexahydro-1H-pyrazino[1',2':1,6]pyrido[3,4-b]indol-2-yl)-pyrrolidin-1-yl]-ethyl)-carbamic acid tert-butyl ester], the IC50 in test [1] (setting [3]) amounted to 0.07 µg/mL (≈ 0.119 µM); in the test with P. falciparum K1 strain (K1, read-out: IC50 K1) it was 0.015 µg/mL (≈ 0.0255 µM).
For `O=C1[C@H]2Cc3c([nH]c4ccccc34)[C@@H](c3ccc4nsnc4c3)N2C(=O)CN1[C@@H]1CCN(Cc2ccccc2)C1` [Compound 70c, (6R,12aR)-6-Benzo[1,2,5]thiadiazol-5-yl-2-((R)-1-benzyl-pyrrolidin-3-yl)-2,3,6,7,12,12a-hexahydro-pyrazino[1',2':1,6] pyrido[3,4-b]indole-1,4-dione], in that order: 0.13 µg/mL (≈ 0.237 µM) and 0.15 µg/mL (≈ 0.273 µM).
For `O=C1[C@H]2Cc3c([nH]c4ccccc34)[C@@H](c3ccc4c(c3)OCO4)N2C(=O)CN1[C@@H]1CCN(Cc2ccc3c(c2)OCO3)C1` [Compound 33, (6R,12aR)-6-Benzo[1,3]dioxol-5-yl-2-((R)-1-benzo[1,3]dioxol-5-ylmethyl-pyrrolidin-3-yl)-2,3,6,7,12,12a-hexahydro-pyrazino[1',2':1,6]pyrido[3,4-b]indole-1,4-dione] the same measures were 0.17 µg/mL (≈ 0.294 µM) and 0.16 µg/mL (≈ 0.277 µM).
For `O=C1[C@H]2Cc3c([nH]c4ccccc34)[C@H](Cc3ccccc3)N2C(=O)CN1C1CCN(Cc2ccccc2)CC1` [Compound 89t, (6S,12aR)-6-Benzyl-2-(1-benzyl-piperidin-4-yl)-2,3,6,7,12,12a-hexahydro-pyrazino[1',2':1,6]pyrido[3,4-b]indole-1,4-dione] the same measures were 4.17 µg/mL (≈ 8.04 µM) and 2.47 µg/mL (≈ 4.76 µM).
Regarding `Cn1ccnc1CN1CCC(N2CC(=O)N3[C@H](Cc4c([nH]c5ccccc45)[C@@H]3Cc3ccccc3)C2=O)CC1` [Compound 91t, (6S,12aR)-6-Benzyl-2-[1-(1-methyl-1H-imidazol-2-ylmethyl)-piperidin-4-yl]-2,3,6,7,12,12a-hexahydro-pyrazino-[1',2':1,6]pyrido[3,4-b]indole-1,4-dione], the IC50 in test [1] (setting [3]) came out at 4.13 µg/mL (≈ 7.9 µM); with P. falciparum K1 strain (K1, read-out: IC50 K1), 4.07 µg/mL (≈ 7.79 µM).
`CCN(CC)CCCC(C)Nc1ccnc2cc(Cl)ccc12` (stereo not drawn) [Chloroquine, reference compound]: in the test on P. falciparum K1 strain (K1), the IC50 lay within 0.13 to 0.21 µg/mL (≈ 0.406 to 0.656 µM).
For the compound `O=C1[C@H]2Cc3c([nH]c4ccccc34)[C@H](c3ccc4nsnc4c3)N2C(=O)CN1[C@@H]1CCN(Cc2ccccc2)C1` [Compound 70t, (6S,12aR)-6-Benzo[1,2,5]thiadiazol-5-yl-2-((R)-1-benzyl-pyrrolidin-3-yl)-2,3,6,7,12,12a-hexahydro-pyrazino[1',2':1,6] pyrido[3,4-b]indole-1,4-dione], the IC50 amounted to 0.7 µg/mL (≈ 1.28 µM) in test [1] (setting [3]) and 0.5 µg/mL (≈ 0.911 µM) with P. falciparum K1 strain (K1, read-out: IC50 K1).
For `O=C1[C@H]2Cc3c([nH]c4ccccc34)[C@H](c3ccc(Cl)nc3)N2C(=O)CN1[C@@H]1CCN(Cc2ccccc2)C1` [Compound 84t, (6S,12aR)-2-((R)-1-Benzyl-pyrrolidin-3-yl)-6-(6-chloro-pyridin-3-yl)-2,3,6,7,12,12a-hexahydro-pyrazino[1',2':1,6] pyrido[3,4-b]indole-1,4-dione] the same measures were 0.09 µg/mL (≈ 0.171 µM) and 1.03 µg/mL (≈ 1.96 µM).
